In patent publication US20260250629A1, “STEM CELLS BASED THREE-DIMENSIONAL EMBRYO MODEL” (CAMBRIDGE ENTERPRISE LIMITED, priority 2023, published 2026):

Columns and labels:
Format in all cases: cell-based, human
[1] = tested on: hEOs; test: Self-organization of hES cells into 3D hEOs, static 96-well culture
Method: Inventors used W15-NANOS3-tdTomato and RUES2-GLR hES cell lines in this study. All hES cells were cultured in Essential 8™ (E8) medium (Life Technologies, A1517001) on freshly prepared Vitronectin (Fisher Scientific, A31804) coated 6-well plates in humidified chambers at 37° C. and 5% CO2. hES cells were passaged every 3-4 days (once they reached ~70% confluency) using 0.5 mM EDTA (ThermoFisher Scientific, AM9260G) in homemade phosphate buffer saline (1×PBS). The transient state of cells was induced, as described previously, with slight modifications^19. In brief, hES cell colonies (70% confluent) were dissociated into single cells using 0.25% Trypsin-EDTA (Life Technologies, 25200072), seeded (600,000 cells/well) into freshly prepared Vitronectin-coated 6-well plates (~30 mins). The cells were cultured for 24 h in the presence of Advanced RPMI 1640 (Life Technologies, 61870-036) supplemented with B27 supplement (1%) (ThermoFisher Scientific, 17504044), 0.1 mM NEAA, 100 U/ml Penicillin, 0.1 mg/ml Streptomycin, 2 mM L-glutamine, Activin A (1 μg/ml) (In-house produced by Biochemistry Department, University of Cambridge), Chiron (3 μM) (CHIR99021, TOCRIS 4423/10) and Rho-associated, coiled-coil containing protein kinase (ROCK) inhibitor (Rocki: 10 μM); Y27632) (hereafter called induction medium, IM). […]

[2] = tested on: hPGCLCs; test: hPGCLC specification in hEOs, NANOS3-tdTomato reporter
Method: Inventors used W15-NANOS3-tdTomato and RUES2-GLR hES cell lines in this study. All hES cells were cultured in Essential 8™ (E8) medium (Life Technologies, A1517001) on freshly prepared Vitronectin (Fisher Scientific, A31804) coated 6-well plates in humidified chambers at 37° C. and 5% CO2. hES cells were passaged every 3-4 days (once they reached ~70% confluency) using 0.5 mM EDTA (ThermoFisher Scientific, AM9260G) in homemade phosphate buffer saline (1×PBS). The transient state of cells was induced, as described previously, with slight modifications^19. In brief, hES cell colonies (70% confluent) were dissociated into single cells using 0.25% Trypsin-EDTA (Life Technologies, 25200072), seeded (600,000 cells/well) into freshly prepared Vitronectin-coated 6-well plates (~30 mins). The cells were cultured for 24 h in the presence of Advanced RPMI 1640 (Life Technologies, 61870-036) supplemented with B27 supplement (1%) (ThermoFisher Scientific, 17504044), 0.1 mM NEAA, 100 U/ml Penicillin, 0.1 mg/ml Streptomycin, 2 mM L-glutamine, Activin A (1 μg/ml) (In-house produced by Biochemistry Department, University of Cambridge), Chiron (3 μM) (CHIR99021, TOCRIS 4423/10) and Rho-associated, coiled-coil containing protein kinase (ROCK) inhibitor (Rocki: 10 μM); Y27632) (hereafter called induction medium, IM).
Transient cells induced in IM for 24 h were dissociated into single cells using 0.25% Trypsin-EDTA and seeded (400 cells/well) into Corning Clear Ultra-low attachment 96-well plates (Fisher Scientific 10023683). […]
hEOs cultured on ultra-low attachment 96-well plates were collected, washed in 1×PBS and fixed in 4% PFA for 3-4 hours at room temperature or 1% PFA overnight at 4° C. hEOs were embedded in OCT mounting medium (VWR-361603E) and incubated in dry ice for 30 min before sectioning the frozen samples. An antigen retrieval procedure was performed to remove the fluorescence reporter from W15-NANOS3-tdTomato hES cell line, where required. […]

[3] = tested on: niSTEMBRYOs; test: Red hemogenic zones in niSTEMBRYOs
[4] = tested on: niSTEMBRYOs; test: Contracting cardiomyocytes in niSTEMBRYOs
[5] = tested on: hEOs; test: Scaled static culture of hEOs in Aggrewell 400 plates
Method: (§1) 24 well Aggrewell™ 400 plates (StemCell Technologies 34411) were pre-treated with 500 μl/well anti-adherence medium and centrifuged at 1300×g for 5 mins. After aspirating the medium, the wells were rinsed with 2 ml warm basal medium. Then, the medium was replaced by 1 ml warm organisation medium (OM). The plate was incubated at 37° C. at 5% CO2 until the cells were ready for seeding. OM comprised of Essential 6 (E6) medium (Life Technologies, A1516401) supplemented with 0.25 μM CH and ROCKi (10 μM). Pre-induced cells were dissociated using 0.25% Trypsin-EDTA, and 480,000 cells were seeded into each well of an Aggrewell™ 400 Plate at the rate of 400 cells/microwell and were centrifuged at 300×g for 3 mins. The final volume of medium in each well was 2 ml. Cells were cultured in Aggrewell plates at 37° C. at 5% CO2 for 4 days. The OM (without ROCKi) was replaced every day. On day 5, hEOs were manually picked and transferred to bottles for rotary culture in a bioreactor. From Day 5, hEOs were cultured in OM supplemented with 1 μM SB431542 at hypoxic conditions (5% O2, 5% CO2 and without ROCKi). The hEOs were collected at different time points for further analysis.

[6] = tested on: hEOs; test: Frequency of beating hEOs (periodic contractions)
Method: 24 well Aggrewell™ 400 plates (StemCell Technologies 34411) were pre-treated with 500 μl/well anti-adherence medium and centrifuged at 1300×g for 5 mins. After aspirating the medium, the wells were rinsed with 2 ml warm basal medium. Then, the medium was replaced by 1 ml warm organisation medium (OM). The plate was incubated at 37° C. at 5% CO2 until the cells were ready for seeding. OM comprised of Essential 6 (E6) medium (Life Technologies, A1516401) supplemented with 0.25 μM CH and ROCKi (10 μM). Pre-induced cells were dissociated using 0.25% Trypsin-EDTA, and 480,000 cells were seeded into each well of an Aggrewell™ 400 Plate at the rate of 400 cells/microwell and were centrifuged at 300×g for 3 mins. The final volume of medium in each well was 2 ml. Cells were cultured in Aggrewell plates at 37° C. at 5% CO2 for 4 days. The OM (without ROCKi) was replaced every day. On day 5, hEOs were manually picked and transferred to bottles for rotary culture in a bioreactor. From Day 5, hEOs were cultured in OM supplemented with 1 μM SB431542 at hypoxic conditions (5% O2, 5% CO2 and without ROCKi). The hEOs were collected at different time points for further analysis. Medium containing human cord serum (HCS) (also known as ex-utero culture medium, EUCM) was used as described earlier^64. In brief, 25% human cord serum was mixed with 25% DMEM (Gibco 11880) (low glucose, no phenol red, no glutamine, no HEPES) and 50% rat serum. Glutamine and Penicillin-Streptomycin (50 units/ml penicillin) were added to the medium supplemented with 4 mg/ml glucose and HEPES (GIBCO 15630056, 11 mM) and 1 mM Sodium Pyruvate. Human cord serum was provided by the Cambridge Blood and Stem Cell Biobank, which is supported by the Cambridge NIHR Biomedical Research Centre, Wellcome Trust-MRC Stem Cell Institute, UK. Rat serum was heat-inactivated for 30 min at 56° C. and filtered through 0.22 μm PVDF filter, whereas human serum was heat inactivated at 55° C. for 45 minutes and sterilized through filtration by 0.22 μm filters. […]

[7] = tested on: niSTEMBRYOs; test: niSTEMBRYO static and kinetic culture: growth and morphology; conditions: kinetic culture with SB
[8] = tested on: niSTEMBRYOs; test: Lineage marker expression and hindgut formation in niSTEMBRYOs
[9] = tested on: hEOs; test: Kinetic rotary culture of hEOs: growth and morphology
Method: as §1, with “analysis. Medium containing human cord serum (HCS) (also known as ex-utero culture medium, EUCM) was used as described earlier^64. […]” for “analysis.”

[10] = tested on: hEOs; test: Frequency of hEOs with red inclusions (haematopoiesis)
Method: as §1, with “On day 5, hEOs were manually picked and transferred to bottles for rotary culture in a bioreactor. From Day 5, hEOs were cultured in OM supplemented with 1 μM SB431542 at hypoxic conditions (5% O2, 5% CO2 and without ROCKi).” left out

SMILES: Cc1c[nH]c(-c2cnc(NCCNc3ccc(C#N)cn3)nc2-c2ccc(Cl)cc2Cl)n1 [CH, CHIR99021]
- aggregates elongated along the longitudinal axis ([1]; 0.25 μM CH, after two days, 1620/1800, N=10 experiments): more than 90%
- self-organization of aggregates into 3D elongated structures ([1]; CH 0.25 μM, 0.5 μM and 1.0 μM): sufficient to promote self-organization into 3D elongated structures
- elongation of hEOs and hPGCLC specification (NANOS3-tdTomato reporter) ([2]; CH 0.25 μM, from D2 until D8, without exogenous BMP2/4): both the elongation of hEOs and the specification of hPGCLCs
- detection of hPGCLCs ([2]; high concentration of CH (1.0 μM), D3 hEOs): No hPGCLCs were detected
- appearance of red hemogenic zones ([3]; aggregates cultured in the presence of CH or HCS alone): did not appear
- periodic contractions ([4]; niSTEMBRYOs cultured with HCS or with CH alone): not evident
- elongation of the aggregates ([5]; four days in the presence of CH, by day 4, 1845/3100, N=4 experiments): ~ 60%

SMILES: c1ccc2c(-c3cnn4cc(-c5ccc(N6CCNCC6)cc5)cnc34)ccnc2c1 [LDN193189]
- effect of BMP inhibition on specification of hPGCLCs ([2]; inhibitor present on D1, D2 or D3): affected the specification of hPGCLCs when present on D1 but not on D2 or D3

SMILES: NC(=O)c1ccc(-c2nc(-c3ccc4c(c3)OCO4)c(-c3ccccn3)[nH]2)cc1 [SB43, SB431542]
- hEOs with periodic and highly localised contractions ([6]; D7, kinetic culture with SB): ~ 10%
- hEOs with periodic and highly localised contractions ([6]; D8, kinetic culture with SB): ~70%
- decrease in the number of beating hEOs ([6]; SB in static and kinetic cultures vs SB only during kinetic cultures, D8, p<0.0001): 40%
- haematopoiesis in niSTEMBRYOs ([3]; SB43 from day 4 onwards (SB late)): promoted haematopoiesis
- red hemogenic phenotype ([3]; SB from D1 (SB early)): no red hemogenic phenotype was observed
- niSTEMBRYOs developing visible red hemogenic zones ([3]; SB in rotary cultures, from D14 onwards, N=196/1170, 5 experiments): ~ 16%
- aggregate size ([7]; after 14 days): quadrupling
- aggregate size ([7]; after four days): doubling in size
- hindgut (SOX17, SOX2 tubular structure) ([8]; SB from D1 (SB early)): appearance of hindgut
- expression of mesodermal marker TBXT ([8]; SB from D1 (SB early), by D4): downregulated
- hindgut ([8]; SB from D4 (SB late)): absent
- niSTEMBRYOs with periodic and highly localised contractions ([4]; D8, kinetic culture with SB): ~ 72%
- appearance of contracting cardiomyocytes ([4]; SB from D1 (SB early) vs SB from D4 (SB late)): not affected
- niSTEMBRYOs with periodic and highly localised contractions ([4]; after 7 days, kinetic culture with SB): ~ 10%
- increase in the frequency of elongated hEOs ([5]; SB in the initial four-day static cultures, D4, p=0.0016): 15%
- hEO size ([9]; kinetic culture with 1 μM SB43, with or without 10% Matrigel, after four days): doubled in size
- hEO size relative to static culture on D4 ([9]; kinetic culture with SB, after 22 days): quadrupled in size
- hEOs containing large internal red zones ([10]; SB in rotary cultures, by day 15): ~ 14%
- red inclusion phenotype ([10]; SB included in the 4D static culture): entirely lost
